In patent US10300000B2, “Inhibition of melanogenesis by chemically modified curcumins” (The Research Foundation for The State University of New York, priority 2016, dated 2019):
Like-named read-outs stand apart in the source and are kept apart here.

Assays:
[1] = target: T1, intracellular tyrosinase in HEM-DP cells (Homo sapiens, UniProt P14679); test: Recovery study of intracellular tyrosinase activity in human melanocytes; type: cell-based
T1 construct: endogenous in cells; host or cells: HEM-DP (primary human epidermal melanocytes, darkly pigmented donor)
T1 sequence (P14679 19-529): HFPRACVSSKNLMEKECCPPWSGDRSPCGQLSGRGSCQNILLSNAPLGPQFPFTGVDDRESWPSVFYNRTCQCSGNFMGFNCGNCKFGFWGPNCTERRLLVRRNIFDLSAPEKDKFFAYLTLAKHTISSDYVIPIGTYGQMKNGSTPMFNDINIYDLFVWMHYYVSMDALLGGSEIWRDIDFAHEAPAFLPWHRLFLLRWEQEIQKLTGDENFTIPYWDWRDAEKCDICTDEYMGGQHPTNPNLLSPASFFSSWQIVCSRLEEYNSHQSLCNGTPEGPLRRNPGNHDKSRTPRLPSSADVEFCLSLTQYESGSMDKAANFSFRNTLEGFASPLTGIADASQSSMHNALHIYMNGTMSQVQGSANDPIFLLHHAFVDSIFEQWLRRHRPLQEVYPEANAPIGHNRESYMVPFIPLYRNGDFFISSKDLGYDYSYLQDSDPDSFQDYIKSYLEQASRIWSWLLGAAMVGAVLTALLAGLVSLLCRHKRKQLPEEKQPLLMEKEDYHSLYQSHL
Method: In order to study if the melanocytes could recover from inhibited tyrosinase activity after exposure to the CMCs, we employed a model for reversibility of inhibition of tyrosinase activity inhibition. This can establish safety of the compounds since irreversible inhibition of tyrosinase activity could damage melanocyte synthetic machinery with potential loss of the protective function of melanin. […] Briefly, HEM-DP were plated in 6-well plates at 2.3×10^5 cells/well and grown for 3 days and then CMCs were added. Tyrosinase activity was estimated after 2 day exposure in cellular lysates and another set of cultures were continued with fresh media without the compounds for further 5 days (with media change at day 3), in order to study reversibility of melanin inhibition.

[2] = system: HEM-DP cells; test: Melanin content quantification in human epidermal melanocytes; type: cell-based; settings: 48 hours
Method: Primary cultures of human epidermal melanocytes from a darkly pigmented donor were seeded at 2.2×10^5 cells/well in 1.5 ml media in 12-well plates and incubated for 48 hours. The test compounds were added to cultures and controls were treated with 0.16% DMSO, and further incubated for another 48 hours. For evaluation of melanin content, cells in the wells were trypsinized and cell pellets were washed in PBS. After aspiration, 250 μL of 1N NaOH was added and heated to 70° C. to solubilize melanin. The aliquots were then transferred to a 96-well plate and absorbance was read at 475 nm using microplate reader. A portion of the lysate was used to evaluate total protein content using […] bincinchonic acid (BCA) assay (Pierce BCA kit, Thermo Scientific). The absorbance of melanin was normalized to the total protein content for each lysate and reported as % of control.

[3] = target: T2, intracellular tyrosinase in B16F10 cells (Mus musculus, UniProt P11344); test: Recovery study of intracellular tyrosinase activity in B16F10 cells; type: cell-based; settings: for tyrosinase activity after removal of compound: 2 day recovery post 2 day exposure
T2 construct: endogenous in cells; host or cells: B16F10
T2 sequence (P11344 19-533): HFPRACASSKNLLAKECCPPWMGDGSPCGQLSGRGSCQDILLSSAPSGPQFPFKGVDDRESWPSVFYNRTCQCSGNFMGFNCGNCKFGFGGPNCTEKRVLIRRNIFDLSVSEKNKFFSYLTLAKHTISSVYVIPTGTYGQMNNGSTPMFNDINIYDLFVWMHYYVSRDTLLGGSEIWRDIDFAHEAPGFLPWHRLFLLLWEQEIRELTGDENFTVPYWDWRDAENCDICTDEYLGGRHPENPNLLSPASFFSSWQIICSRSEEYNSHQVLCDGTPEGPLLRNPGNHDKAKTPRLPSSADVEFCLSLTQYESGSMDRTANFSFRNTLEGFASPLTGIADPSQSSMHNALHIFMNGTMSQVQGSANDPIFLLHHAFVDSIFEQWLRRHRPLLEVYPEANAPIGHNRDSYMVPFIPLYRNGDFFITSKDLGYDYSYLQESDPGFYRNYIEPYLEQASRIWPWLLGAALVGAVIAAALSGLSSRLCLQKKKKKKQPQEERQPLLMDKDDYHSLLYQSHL
Method: In order to establish reversibility of tyrosinase inhibition by the CMCs, we conducted a “recovery” study over a 2 day interval using the highest concentrations of the compounds which produced maximum tyrosinase activity inhibition without toxicity. B16F10 were plated in six-well plates at 3.5×10^4 cells/well and compounds were added (PC-10 μM, CMC2.14-10 μM, CMC2.5-20 μM, CMC2.23-25 μM and CMC2.24 at 20 μM) next day. Tyrosinase activity in one set of cultures after detachment and lysis as described herein was estimated after 2 day exposure while another set of cultures were continued with fresh media without the compounds to study reversibility of tyrosinase activity inhibition for another 2 days. Results are expressed as % tyrosinase activity for both 2 day exposure and 2 day recovery post 2 day exposure.

[4] = target: T3, cellular tyrosinase in HEM-DP cells (Homo sapiens, UniProt P14679); test: Intracellular tyrosinase activity in human melanocytes; type: cell-based; settings: 48 hours
T3 construct: endogenous in cells; host or cells: HEM-DP (primary human epidermal melanocytes, darkly pigmented donor)
T3 sequence (P14679 19-529): T1 sequence (P14679 19-529)
Method: We quantitated the cellular tyrosinase activity of human melanocytes based on established methods. Briefly, human epidermal melanocytes from a darkly pigmented donor (HEM-DP) were cultured in 12-well tissue culture plates at density of 1.5×10^5 cells/well. After 48 hrs. media was changed and test compounds were added, and further incubated for 48 hrs. At the end of treatments, cells were trypsinized and cell pellets were washed in PBS and lysed with lysis buffer under ice for 30 minutes and then centrifuged to remove cellular debris. 50 μl of lysates were then aliquoted in 96-well microplate and 150 μl of freshly prepared 3 mM L-DOPA was added. The absorbance was then measured kinetically at 475 nm every 30 seconds for 30 minutes at 30° C. using microplate reader (Versamax®). The % inhibition of tyrosinase activity was calculated by determining melanin formation rates from the linear range of the slopes of melanin formation over time for the different samples and calculating % inhibition from the measured velocities of melanin formation.

[5] = system: B16F10 cells; test: Melanin content quantification in B16F10 cells; type: cell-based, mouse; settings: for inhibition of melanin content / effect on melanin content (words): 48 hours; for effect on melanin content (words): B16F10, tested concentrations; for IC50: B16F10 cells exposed for 48 hours, non-linear curve fitting, read-out: IC50-Melanin Inhibition
Method: B16F10 cells were seeded at 1×10^5 cells/well in 1.5 ml media in 12-well plates and incubated for 24 hours. […] For quantification of melanin content, cells were trypsinized and cell pellets were washed in PBS. Cell pellets were also visually observed for lightening of the intracellular pigment. After aspiration, 250 μL of 1N NaOH was added and heated to 70° C. to solubilize melanin. The aliquots were then transferred to a 96-well plate and absorbance was read at 475 nm using a microplate reader. A portion of the lysate was used to evaluate total protein content using BCA assay. The melanin absorbance was normalized by total protein content and expressed as % of control.

[6] = system: HaCaT cells; settings: HaCaT, 48 hours
Method: Briefly, 2×10^4 cells/well were seeded in 96-well plates and after 24 hours, the compounds at concentrations of 5-25 μM were added to the wells and incubated for 48 hours. Absorbance was read after 1 hour of incubation of plates and results were expressed as % of control.

For `COC(=O)C(C(=O)C=Cc1ccc(O)c(OC)c1)C(=O)C=Cc1ccc(O)c(OC)c1` (centres unmarked) [CMC2.5, 4-methoxycarbonyl curcumin], the “reduction of tyrosinase activity at the exposure time” value ([1]; 20 μM, 2 day exposure) was 12%, the “reduction in melanin content” value ([2]; 20 μM) was about 20% and the “tyrosinase activity after removal of compound” value ([3]; B16F10, 20 μM) was “completely recovered”. For the same compound, the “inhibition of cellular tyrosinase activity” value ([4]; 20 μM) was 16%.
`COC(=O)C(C(=O)/C=C/c1ccc(O)cc1)C(=O)/C=C/c1ccc(O)cc1` [CMC2.14] was tested, and the “inhibition of melanin content” value ([5]; B16F10, 10 μM) was 32.21%, the “effect on melanin content (words)” value [5] was “moderate inhibition” and the IC50 [5] was 15.1 µM. The “stimulation of cell proliferation” value ([6]; 5 μM) was 23.2%, the “stimulation of cell proliferation” value ([6]; 10 μM) was 15.5% and the “loss of tyrosinase activity” value ([3]; B16F10, 10 μM, 2 day exposure) was “up to 75%”. The “tyrosinase activity after removal of compound” value ([3]; B16F10, 10 μM) was 100%.
In the case of `COc1cc(/C=C/C(=O)C(C(=O)/C=C/c2ccc(O)c(OC)c2)C(=O)Nc2ccccc2)ccc1O` [CMC2.23], the “inhibition of melanin content” value ([5]; B16F10, 25 μM) is reported as 46.4%, the “effect on melanin content (words)” value [5] is reported as “most potent inhibition” and the “effect on melanin content (words)” value ([5]; listed as 2.23) is reported as “moderate inhibition”. The IC50 [5] was 24.1 µM, the “recovery of tyrosinase activity” value ([1]; 5 days after removal, CMC2.24 10 μM, CMC2.23 and CMC2.5 20 μM) was “partially recovered” and the “stimulation of cell proliferation” value ([6]; 10 μM) was 11.3%. For the same compound, the “stimulation of cell proliferation” value ([6]; 20 μM) was 22.9%, the “reduction in melanin content” value ([2]; 10 μM) was 20% and the “reduction in melanin content” value ([2]; 20 μM) was 20%. The “inhibition of cellular tyrosinase activity” value ([4]; 5 μM) was 25%, the “inhibition of cellular tyrosinase activity” value ([4]; 10 μM) was 35% and the “inhibition of cellular tyrosinase activity” value ([4]; 20 μM) was 49%.
